Earlier results, collected in article PMC8880268, “Magnolol and Luteolin Inhibition of α-Glucosidase Activity: Kinetics and Type of Interaction Detected by In Vitro and In Silico Studies” (Pharmaceuticals, 2022).

Tested on: α-glucosidase
Settings: cited from earlier work; for type of inhibition (inhibition kinetic assays): ref 19; for IC50: studied with 0.5 µM of α-glucosidase ref 19

**Q.** Which “type of inhibition (inhibition kinetic assays)” value (from here on “type of inhibition”) does the source give for O=c1c(O)c(-c2ccc(O)c(O)c2)oc2cc(O)cc(O)c12 [compound 2, quercetin] here?
**A.** non-competitive inhibitors

**Q.** What does the source list for O=C(OC1C(O)C(CO)OC(Oc2c(-c3ccc(O)c(O)c3)oc3cc(O)cc(O)c3c2=O)C1O)c1cc(O)c(O)c(O)c1 (stereo not shown) [compound 3]?
**A.** type of inhibition (inhibition kinetic assays): non-competitive; IC50: 0.97 µM

**Q.** For O=C(OC[C@@H]1O[C@@H](Oc2c(-c3ccc(O)c(O)c3)oc3cc(O)cc(O)c3c2=O)[C@@H](O)[C@H](O)[C@@H]1O)c1cc(O)c(O)c(O)c1 [compound 4], which “type of inhibition” value is on record?
**A.** non-competitive inhibitor

**Q.** What about the IC50 of the same compound?
**A.** 1.35 µM

**Q.** For O=C(OC[C@@H]1O[C@@H](Oc2c(-c3ccc(O)c(O)c3)oc3cc(O)cc(O)c3c2=O)[C@@H](O)[C@H](O)[C@H]1O)c1cc(O)c(O)c(O)c1 [compound 5], which “type of inhibition” value is on record?
**A.** competitive inhibitor

**Q.** What about the IC50 of the same compound?
**A.** 27.8 µM
